Results from ChEMBL document CHEMBL5143585, “Discovery and characterization of benzyloxy piperidine based dopamine 4 receptor antagonists” (Bioorg Med Chem Lett, 2022).

target: T1, D(4) dopamine receptor (Homo sapiens, UniProt P21917); experiment: Displacement of [3H]N-methylspiperone from human D4 receptor expressed in HEK293 cell membrane by competitive inhibition based analysis; format: cell membranes; conditions: not given
T1 sequence (P21917 whole entry): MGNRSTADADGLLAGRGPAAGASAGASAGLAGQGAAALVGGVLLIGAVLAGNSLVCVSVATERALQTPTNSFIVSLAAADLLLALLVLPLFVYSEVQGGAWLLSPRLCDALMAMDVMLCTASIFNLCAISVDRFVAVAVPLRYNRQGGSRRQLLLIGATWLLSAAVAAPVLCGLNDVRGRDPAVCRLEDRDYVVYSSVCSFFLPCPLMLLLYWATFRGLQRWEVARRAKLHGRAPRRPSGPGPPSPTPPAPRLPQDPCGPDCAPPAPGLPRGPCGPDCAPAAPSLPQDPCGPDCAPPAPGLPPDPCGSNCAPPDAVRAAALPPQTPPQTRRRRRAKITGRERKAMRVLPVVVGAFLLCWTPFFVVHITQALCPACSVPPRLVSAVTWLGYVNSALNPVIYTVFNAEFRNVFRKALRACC

Row | Compound | IC50 [nM] | Ki [nM]
1 | Cc1nc(CN2CCC(OCc3cccc(C(F)(F)F)c3)CC2)c2ccccn12 | 302 | 309
2 | Cn1cnc2cc(CN3CCC(OCc4cccc(C(F)(F)F)c4)CC3)ccc21 | 646 | 640
3 | Cc1c(Cl)cccc1NC(=O)CN1CCC(OCc2cccc(C(F)(F)F)c2)CC1 | 1150 | 1160
4 | FC(F)(F)c1cccc(COC2CCN(Cc3ccc4[nH]cnc4c3)CC2)c1 | 1820 | 1800
5 | Cn1ncc2cc(CN3CCC(OCc4cccc(C(F)(F)F)c4)CC3)ccc21 | 200 | 200
6 | Cn1ncc2cc(CN3CCC(OCc4ccc(F)c(F)c4)CC3)ccc21 | 275 | 276

target: D(1A) dopamine receptor (Homo sapiens, UniProt P21728); experiment: Displacement of [3H]-SCH23390 from human D1 receptor expressed in HEK293 cell membrane at 10 uM by competitive inhibition based analysis; format: cell membranes; conditions: not given
Sequence (P21728 whole entry): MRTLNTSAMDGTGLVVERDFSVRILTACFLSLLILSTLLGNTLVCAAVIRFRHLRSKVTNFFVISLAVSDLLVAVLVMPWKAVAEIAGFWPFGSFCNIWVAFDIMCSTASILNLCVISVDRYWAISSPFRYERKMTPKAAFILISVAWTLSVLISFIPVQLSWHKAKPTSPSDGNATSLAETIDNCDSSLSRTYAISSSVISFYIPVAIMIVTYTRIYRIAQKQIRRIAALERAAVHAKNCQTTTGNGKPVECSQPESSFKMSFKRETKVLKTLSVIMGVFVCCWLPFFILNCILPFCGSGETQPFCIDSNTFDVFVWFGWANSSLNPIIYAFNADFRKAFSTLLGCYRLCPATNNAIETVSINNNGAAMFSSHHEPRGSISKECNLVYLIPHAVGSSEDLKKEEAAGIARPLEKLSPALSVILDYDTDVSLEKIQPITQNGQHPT

Row | Compound | inhibition [%]
7 | Cc1nc(CN2CCC(OCc3cccc(C(F)(F)F)c3)CC2)c2ccccn12 | < 50
8 | Cc1c(Cl)cccc1NC(=O)CN1CCC(OCc2cccc(C(F)(F)F)c2)CC1 | < 50
9 | FC(F)(F)c1cccc(COC2CCN(Cc3ccc4[nH]cnc4c3)CC2)c1 | < 50
10 | Cn1ncc2cc(CN3CCC(OCc4cccc(C(F)(F)F)c4)CC3)ccc21 | < 50
11 | Cn1ncc2cc(CN3CCC(OCc4ccc(F)c(F)c4)CC3)ccc21 | < 50

tested on: not listed separately; experiment: Drug uptake in rat brain at 0.25 mg/kg, iv measured on day 2 at 0.25 hrs post-dose; format: ADME, organism-based; conditions: time 2 day, read-out: Drug uptake

Row | Compound | concentration at 48 h [ng/g]
12 | Cn1cnc2cc(CN3CCC(OCc4cccc(C(F)(F)F)c4)CC3)ccc21 | 214
13 | Cn1ncc2cc(CN3CCC(OCc4ccc(F)c(F)c4)CC3)ccc21 | 355

tested on: not listed separately; experiment: Initial plasma concentration in rat at 0.25 mg/kg, iv; format: ADME, organism-based; conditions: in vivo, iv, 0.25 mg/kg

Row | Compound | C0 [ng/mL]
14 | Cn1cnc2cc(CN3CCC(OCc4cccc(C(F)(F)F)c4)CC3)ccc21 | 60.2
15 | Cn1ncc2cc(CN3CCC(OCc4ccc(F)c(F)c4)CC3)ccc21 | 32.5

tested on: not listed separately; experiment: Ratio of drug level in rat brain to plasma at 0.25 mg/kg, iv measured on day 2 at 0.25 hrs post-dose; format: ADME, organism-based; conditions: time 2 day, read-out: BPR

Row | Compound | Kp at 48 h
16 | Cn1cnc2cc(CN3CCC(OCc4cccc(C(F)(F)F)c4)CC3)ccc21 | 7.2
17 | Cn1ncc2cc(CN3CCC(OCc4ccc(F)c(F)c4)CC3)ccc21 | 11.6

tested on: not listed separately; experiment: Plasma concentration in rat at 0.25 mg/kg, iv measured on day 2 at 0.25 hrs post-dose; format: ADME, organism-based; conditions: time 2 day

Row | Compound | concentration at 48 h [ng/mL]
18 | Cn1cnc2cc(CN3CCC(OCc4cccc(C(F)(F)F)c4)CC3)ccc21 | 30.1
19 | Cn1ncc2cc(CN3CCC(OCc4ccc(F)c(F)c4)CC3)ccc21 | 30.6

tested on: not listed separately; experiment: Protein binding in human plasma assessed as unbound fraction; format: ADME, cell-free; conditions: not given

Row | Compound | Fu [%]
20 | Cc1nc(CN2CCC(OCc3cccc(C(F)(F)F)c3)CC2)c2ccccn12 | 5.2
21 | Cn1cnc2cc(CN3CCC(OCc4cccc(C(F)(F)F)c4)CC3)ccc21 | 1
22 | FC(F)(F)c1cccc(COC2CCN(Cc3ccc4[nH]cnc4c3)CC2)c1 | 2.5
23 | Cn1ncc2cc(CN3CCC(OCc4cccc(C(F)(F)F)c4)CC3)ccc21 | 1
24 | Cn1ncc2cc(CN3CCC(OCc4ccc(F)c(F)c4)CC3)ccc21 | 3.6

tested on: not listed separately; experiment: Protein binding in mouse plasma assessed as unbound fraction; format: ADME, cell-free; conditions: not given

Row | Compound | Fu [%]
25 | Cc1nc(CN2CCC(OCc3cccc(C(F)(F)F)c3)CC2)c2ccccn12 | 3.6
26 | Cn1cnc2cc(CN3CCC(OCc4cccc(C(F)(F)F)c4)CC3)ccc21 | 5.7
27 | FC(F)(F)c1cccc(COC2CCN(Cc3ccc4[nH]cnc4c3)CC2)c1 | 16.1
28 | Cn1ncc2cc(CN3CCC(OCc4cccc(C(F)(F)F)c4)CC3)ccc21 | 5.7
29 | Cn1ncc2cc(CN3CCC(OCc4ccc(F)c(F)c4)CC3)ccc21 | 16.6

target: T2, D(3) dopamine receptor (Homo sapiens, UniProt P35462); experiment: Displacement of [3H]N-methylspiperone from human D3 receptor expressed in HEK293 cell membrane by competitive inhibition based analysis; format: cell membranes; conditions: not given
T2 sequence (P35462 whole entry): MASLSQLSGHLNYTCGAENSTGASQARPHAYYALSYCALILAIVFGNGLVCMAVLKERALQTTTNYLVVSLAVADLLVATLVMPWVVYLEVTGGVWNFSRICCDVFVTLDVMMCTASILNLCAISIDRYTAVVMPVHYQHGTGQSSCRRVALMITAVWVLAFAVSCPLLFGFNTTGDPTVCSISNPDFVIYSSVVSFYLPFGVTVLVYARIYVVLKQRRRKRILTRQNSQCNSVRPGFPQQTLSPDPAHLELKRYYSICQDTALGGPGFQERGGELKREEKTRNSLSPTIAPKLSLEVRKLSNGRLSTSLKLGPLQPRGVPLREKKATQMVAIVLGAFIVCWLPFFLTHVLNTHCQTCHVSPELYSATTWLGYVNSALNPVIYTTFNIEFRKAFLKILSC

Row | Compound | Ki [nM]
30 | Cc1nc(CN2CCC(OCc3cccc(C(F)(F)F)c3)CC2)c2ccccn12 | 896
31 | Cc1c(Cl)cccc1NC(=O)CN1CCC(OCc2cccc(C(F)(F)F)c2)CC1 | 2120
32 | FC(F)(F)c1cccc(COC2CCN(Cc3ccc4[nH]cnc4c3)CC2)c1 | 948
33 | Cn1ncc2cc(CN3CCC(OCc4cccc(C(F)(F)F)c4)CC3)ccc21 | 923

tested on: not listed separately; experiment: Half-life in rat at 0.25 mg/kg, iv measured for 24 hrs; format: ADME, organism-based; conditions: in vivo

Row | Compound | t1/2 [h]
34 | Cn1cnc2cc(CN3CCC(OCc4cccc(C(F)(F)F)c4)CC3)ccc21 | 1.1
35 | Cn1ncc2cc(CN3CCC(OCc4ccc(F)c(F)c4)CC3)ccc21 | 1.4

tested on: not listed separately; experiment: AUC in rat at 0.25 mg/kg, iv measured for 24 hrs; format: ADME, organism-based; design: time 24 hrs, dose 0.25 mg/kg, route iv; conditions: in vivo

Row | Compound | AUC [ng·h/mL]
36 | Cn1cnc2cc(CN3CCC(OCc4cccc(C(F)(F)F)c4)CC3)ccc21 | 149
37 | Cn1ncc2cc(CN3CCC(OCc4ccc(F)c(F)c4)CC3)ccc21 | 112

tested on: not listed separately; experiment: Volume of distribution at steady state in rat at 0.25 mg/kg, iv measured for 24 hrs; format: ADME, organism-based; conditions: in vivo

Row | Compound | Vdss [L/kg]
38 | Cn1cnc2cc(CN3CCC(OCc4cccc(C(F)(F)F)c4)CC3)ccc21 | 6.3
39 | Cn1ncc2cc(CN3CCC(OCc4ccc(F)c(F)c4)CC3)ccc21 | 12.9

target: T2, D(3) dopamine receptor; experiment: Displacement of [3H]N-methylspiperone from human D3 receptor expressed in HEK293 cell membrane at 10 uM by competitive inhibition based analysis; format: cell membranes; conditions: not given

Row | Compound | inhibition [%]
40 | Cc1nc(CN2CCC(OCc3cccc(C(F)(F)F)c3)CC2)c2ccccn12 | < 50
41 | Cn1ncc2cc(CN3CCC(OCc4ccc(F)c(F)c4)CC3)ccc21 | < 50

same assay, conditions: filed as antagonist

Row | Compound | inhibition [%]
42 | Cc1c(Cl)cccc1NC(=O)CN1CCC(OCc2cccc(C(F)(F)F)c2)CC1 | 84
43 | FC(F)(F)c1cccc(COC2CCN(Cc3ccc4[nH]cnc4c3)CC2)c1 | 83
44 | Cn1ncc2cc(CN3CCC(OCc4cccc(C(F)(F)F)c4)CC3)ccc21 | 92

target: D(1B) dopamine receptor (Homo sapiens, UniProt P21918); experiment: Displacement of [3H]-SCH23390 from human D5 receptor expressed in HEK293 cell membrane at 10 uM by competitive inhibition based analysis; format: cell membranes; conditions: not given
Sequence (P21918 whole entry): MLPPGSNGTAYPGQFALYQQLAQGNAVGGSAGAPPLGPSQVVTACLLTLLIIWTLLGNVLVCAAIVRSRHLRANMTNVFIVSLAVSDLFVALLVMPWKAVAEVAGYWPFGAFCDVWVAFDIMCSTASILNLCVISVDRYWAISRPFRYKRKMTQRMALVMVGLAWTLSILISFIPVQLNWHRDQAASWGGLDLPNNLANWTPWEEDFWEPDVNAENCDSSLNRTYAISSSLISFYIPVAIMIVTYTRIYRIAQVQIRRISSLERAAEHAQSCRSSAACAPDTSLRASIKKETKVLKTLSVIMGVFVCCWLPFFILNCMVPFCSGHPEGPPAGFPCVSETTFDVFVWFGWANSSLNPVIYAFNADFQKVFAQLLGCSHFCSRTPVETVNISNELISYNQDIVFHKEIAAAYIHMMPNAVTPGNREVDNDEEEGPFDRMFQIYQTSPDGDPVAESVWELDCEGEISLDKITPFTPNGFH

Row | Compound | inhibition [%]
45 | Cc1nc(CN2CCC(OCc3cccc(C(F)(F)F)c3)CC2)c2ccccn12 | < 50
46 | Cc1c(Cl)cccc1NC(=O)CN1CCC(OCc2cccc(C(F)(F)F)c2)CC1 | < 50
47 | FC(F)(F)c1cccc(COC2CCN(Cc3ccc4[nH]cnc4c3)CC2)c1 | < 50
48 | Cn1ncc2cc(CN3CCC(OCc4cccc(C(F)(F)F)c4)CC3)ccc21 | < 50
49 | Cn1ncc2cc(CN3CCC(OCc4ccc(F)c(F)c4)CC3)ccc21 | < 50

target: D(2) dopamine receptor (Homo sapiens) (UniProt P14416); experiment: Displacement of [3H]N-methylspiperone from human D2 receptor expressed in HEK293 cell membrane at 10 uM by competitive inhibition based analysis; format: cell membranes; conditions: not given
Sequence (P14416 whole entry): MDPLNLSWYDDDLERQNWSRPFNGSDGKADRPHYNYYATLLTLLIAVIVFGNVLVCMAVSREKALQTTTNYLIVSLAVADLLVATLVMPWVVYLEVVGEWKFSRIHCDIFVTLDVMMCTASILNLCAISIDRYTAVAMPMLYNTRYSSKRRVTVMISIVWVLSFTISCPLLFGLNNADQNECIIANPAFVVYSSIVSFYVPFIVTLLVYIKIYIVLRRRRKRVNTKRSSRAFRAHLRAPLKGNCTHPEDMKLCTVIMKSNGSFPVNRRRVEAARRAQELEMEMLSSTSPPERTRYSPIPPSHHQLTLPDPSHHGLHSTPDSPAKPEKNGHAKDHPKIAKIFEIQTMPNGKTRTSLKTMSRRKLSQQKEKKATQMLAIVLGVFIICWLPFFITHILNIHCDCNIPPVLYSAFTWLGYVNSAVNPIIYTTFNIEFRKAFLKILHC

Row | Compound | inhibition [%]
50 | Cc1nc(CN2CCC(OCc3cccc(C(F)(F)F)c3)CC2)c2ccccn12 | < 50
51 | Cc1c(Cl)cccc1NC(=O)CN1CCC(OCc2cccc(C(F)(F)F)c2)CC1 | < 50
52 | FC(F)(F)c1cccc(COC2CCN(Cc3ccc4[nH]cnc4c3)CC2)c1 | < 50
53 | Cn1ncc2cc(CN3CCC(OCc4cccc(C(F)(F)F)c4)CC3)ccc21 | < 50
54 | Cn1ncc2cc(CN3CCC(OCc4ccc(F)c(F)c4)CC3)ccc21 | < 50
